Reference: publication PMC11436024, “E-Cyanoacrylamides and 5-Imino Pyrrolones against Trypanosoma cruzi: Activity and Induced Mechanisms of Cell Death” (Tropical Medicine and Infectious Disease, 2024)

Key:
[1] = tested on: epimastigote form of T. cruzi; experiment: In vitro epimastigote activity assay (alamarBlue); assay type: cell-based, Trypanosoma cruzi strain Y; settings: for IC50: epimastigote form of T. cruzi, 72 h incubation at 26 °C, mean ± standard deviation; for SI (selectivity index, CC50/IC50): against the epimastigote form of T. cruzi, CC50 murine macrophages
Method: This assay is based on the use of alamarBlue. The alamarBlue reagent contains resazurin, which emits blue fluorescence under normal conditions. However, when the parasites are still alive and in contact with cell metabolism, the reagent is reduced to resorufin, which emits pink fluorescence.
In 96-well plates, serial dilutions of each compound were added with parasites at a concentration of 10^6 cells/mL in a final volume of 200 µL. Finally, 10% alamarBlue reagent was added, with 20 µL per well.
After 72 h of incubation at 26 °C, the plate was introduced into the plate reader and the fluorescence (570 nm excitation, 585 nm emission) of each well was determined using the EnSpire Multimode Plate Reader® (PerkinElmer, Thermo Fischer Scientific, Madrid, Spain). Finally, using a non-linear regression analysis in Graphpad Prism 9.0.0. the inhibitory concentration 50 (IC50) was calculated.
Inhibitory and cytotoxic concentrations (IC50, IC90, and CC50) were determined in duplicate on three different days using non-linear regression [Inhibitor] vs. response variable slope (four parameters) using non-linear regression analysis with 95% confidence, using GraphPad Prism 10.1.1 statistical software. The analysis was developed using Tukey’s test, considering significant values of p < 0.05. ANOVA analysis was also performed using GraphPad Prism 10.1.1.

[2] = tested on: Murine macrophages J774.A1; experiment: Cytotoxicity assay (alamarBlue); assay type: cell-based; settings: for IC50 (cytotoxic concentration 50, CC50): 24 h
Method: Murine macrophages J774.A1 strain ATCC #TIB-67, acquired from American Type Culture Collection (ATTC, LGC Promochem, Barcelona, Spain), were cultured in DMEM medium and maintained at 37 °C and 5% CO2. This assay followed the same principle as the previous one, but in this case, macrophages were used instead of parasites to determine the toxicity of the compounds. A total of 50 μL with a concentration of 2 × 10^5 cells/mL was added to each well with serial dilutions of the compounds in 50 μL of RPMI medium. After this, 10% of alamarBlue™ reagent was added and the plate was incubated at 37 °C and 5% CO2 for 24 h. After this time, the fluorescence was read using the EnSpire Multimode Plate Reader® and the cytotoxic concentration 50 (IC50) was calculated. Inhibitory and cytotoxic concentrations (IC50, IC90, and CC50) were determined in duplicate on three different days using non-linear regression [Inhibitor] vs. response variable slope (four parameters) using non-linear regression analysis with 95% confidence, using GraphPad Prism 10.1.1 statistical software. The analysis was developed using Tukey’s test, considering significant values of p < 0.05. ANOVA analysis was also performed using GraphPad Prism 10.1.1.

[3] = tested on: Trypanosoma cruzi parasites; experiment: Induction of cell death mechanisms (ATP, SYTOX Green, JC-1, Hoechst/PI, CellROX); assay type: cell-based; settings: parasites incubated 24 h with the IC90 of the compounds
Method: To observe these events, parasites were incubated for 24 h with the IC90 of the compounds. After that, the plate was centrifuged at 3000 rpm at 4 °C for 10 min to remove the supernatant. The pellet was then resuspended in buffer and the different kits were added following the manufacturer’s instructions. CellTiter-Glo® Luminescent Cell Viability Assay was used to determine the ATP levels of the parasitic cells. This kit contains luciferin upon contact with cell metabolism, oxidises to oxyluciferin and emitting luminescence. The procedure was as follows: after 24 h of incubation and centrifugation, the pellet was resuspended in 25 μL of buffer and mixed with 25 μL of CellTiter-Glo® in the dark, shaking for 2 min. Then, after 15 min of incubation at room temperature, the luminescence was read in the EnSpire Multimode Plate Reader® [20]. In PCD, there is an alteration in the permeability of the plasma membrane, but the cell structure is maintained. The SYTOX™ Green Stain (Thermo Fischer Scientific, Madrid, Spain) only penetrates cells with increased plasma permeability. Once inside the cell, it will bind to the DNA and emit green fluorescence. After incubation and centrifugation, the pellet was resuspended in 50 μL of buffer and the reagent was added at a concentration of 1 μM. […]

[4] = tested on: L3 larvae of Culex pipiens; experiment: Larvicidal (in vivo toxicity) assay against mosquito larvae
Method: The L3 larvae from Culex pipiens, used in the cytotoxicity assay, were cultured at the Laboratorio de Entomología Médica of the Instituto Universitario de Enfermedades Tropicales y Salud Pública de Canarias in Tenerife, Spain.
For this purpose, 3 mL of sterile water with food for 48 h was added to 24-well plates, following WHO guidelines of necessary nutrients. In each well, one L3 larva of Culex pipiens was added, together with different concentrations of the compounds to be tested (IC90 and two times IC90). In addition, negative controls, without treatment and with the maximum amount of DMSO added in the treatments, and positive controls, benznidazole as the reference treatment and triton, previously reported to be toxic to larvae, were added. All experiments were performed in duplicate and repeated on 3 different days, observing larval viability at different times (1, 3, 12, 24, and 48 h after the start of treatment).

[5] = tested on: amastigote form of T. cruzi; experiment: In vitro amastigote activity assay (alamarBlue, intracellular parasites in macrophages); assay type: cell-based, Trypanosoma cruzi; settings: for IC50: Trypanosoma cruzi, Macrophage, amastigote form of T. cruzi in macrophages, 24 h with compound at 37 °C, mean ± standard deviation; for SI (selectivity index, CC50/IC50): against the amastigote form of T. cruzi, CC50 murine macrophages
Method: To perform the assay against the intracellular form of the parasite, the same colorimetric method based on the alamarBlue was developed. To produce the internalization of the parasites, an excess of epimastigote forms were added (10^5:10^4 parasites/macrophages in 100 µL of DMEM) to a 96-well plate for 24 h at 37 °C. Then, the wells were washed 3 times to eliminate the non-internalized parasites, and the serial dilutions of the compounds were added and dissolved in DMEM medium. After another incubation of 24 h at 37 °C, the drugs were eliminated and the cells were lysed with 0.05% SDS for 30 s. After adding LIT in a final volume of 200 µL and 10% of alamarBlue™ reagent, the plates were incubated for 96 h to promote the externalization of the parasites. Finally, the fluorescence was read using the EnSpire Multimode Plate Reader® and the inhibitory concentration 50 (IC50) was calculated. Inhibitory and cytotoxic concentrations (IC50, IC90, and CC50) were determined in duplicate on three different days using non-linear regression [Inhibitor] vs. response variable slope (four parameters) using non-linear regression analysis with 95% confidence, using GraphPad Prism 10.1.1 statistical software. The analysis was developed using Tukey’s test, considering significant values of p < 0.05. ANOVA analysis was also performed using GraphPad Prism 10.1.1.

[6] = murine macrophages, mean ± standard deviation
[7] = 2IC90 (two times IC90) of compound, 1 h
[8] = 2IC90 (two times IC90) of compound, 3 h
[9] = 2IC90 (two times IC90) of compound, 12 h
[10] = 2IC90 (two times IC90) of compound, 24 h
[11] = 2IC90 (two times IC90) of compound, 48 h

N#C/C=C/C(=O)Nc1ccccc1 [A]
IC50 ([1]; Trypanosoma cruzi, 72 h): 18.7 ± 1.9 µM | SI (selectivity index, CC50/IC50) [1]: 5.1 | IC50 (cytotoxic concentration 50, CC50) [2, 6]: 94.78 ± 23.11 µM

N=C1C=CC(=O)N1c1ccccc1 [B]
type of cell death produced [3]: late phase of this type of cell death | IC50 ([1]; Trypanosoma cruzi, 72 h): < 10 µM | IC50 [1]: 6.91 ± 1.33 µM | IC50 (cytotoxic concentration 50, CC50) [2, 6]: 118.07 ± 11.90 µM | larval viability [4, 7]: Alive | larval viability [4, 8]: Alive | larval viability [4, 9]: Alive | larval viability [4, 10]: Alive | larval viability [4, 11]: Alive | larval viability ([4]; IC90 of compound, 1 h): Alive | larval viability ([4]; IC90 of compound, 3 h): Alive | larval viability ([4]; IC90 of compound, 12 h): Alive | larval viability ([4]; IC90 of compound, 24 h): Alive | larval viability ([4]; IC90 of compound, 48 h): Alive | IC50 [5]: 10.8 ± 2.11 µM | SI (selectivity index, CC50/IC50) [5]: 10.9

O=C(Cn1ccnc1[N+](=O)[O-])NCc1ccccc1 [Benznidazole, reference compound]
IC50 ([1]; Trypanosoma cruzi, 72 h): 6.92 ± 0.77 µM | SI (selectivity index, CC50/IC50) [1]: 57.8 | IC50 (cytotoxic concentration 50, CC50) [2, 6]: 399.91 ± 1.40 µM | larval viability [4, 7]: Alive | larval viability [4, 8]: Alive | larval viability [4, 9]: Alive | larval viability [4, 10]: Alive | larval viability [4, 11]: Alive | larval viability ([4]; IC90 of compound, 1 h): Alive | larval viability ([4]; IC90 of compound, 3 h): Alive | larval viability ([4]; IC90 of compound, 12 h): Alive | larval viability ([4]; IC90 of compound, 24 h): Alive | larval viability ([4]; IC90 of compound, 48 h): Alive | IC50 [5]: 2.67 ± 0.39 µM | SI (selectivity index, CC50/IC50) [5]: 149.8

N#C/C=C/C(=O)NCc1ccccc1 [C]
IC50 ([1]; Trypanosoma cruzi, 72 h): 18.8 ± 2.03 µM | IC50 (cytotoxic concentration 50, CC50) [2, 6]: 208.01 ± 13.44 µM | larval viability [4, 7]: Alive | larval viability [4, 8]: Alive | larval viability [4, 9]: Alive | larval viability [4, 10]: Alive | larval viability [4, 11]: Alive | larval viability ([4]; IC90 of compound, 1 h): Alive | larval viability ([4]; IC90 of compound, 3 h): Alive | larval viability ([4]; IC90 of compound, 12 h): Alive | larval viability ([4]; IC90 of compound, 24 h): Alive | larval viability ([4]; IC90 of compound, 48 h): Alive | IC50 [5]: 24.1 ± 6.22 µM | SI (selectivity index, CC50/IC50) [5]: 8.6

N=C1C=CC(=O)N1Cc1ccccc1 [D]
IC50 ([1]; Trypanosoma cruzi, 72 h): 12.4 ± 1.49 µM | SI (selectivity index, CC50/IC50) [1]: 6.9 | IC50 (cytotoxic concentration 50, CC50) ([2]; mouse): 85.32 ± 3.71 µM

COc1ccc(CNC(=O)/C=C/C#N)cc1 [E]
IC50 ([1]; Trypanosoma cruzi, 72 h): > 100 µM | SI (selectivity index, CC50/IC50) [1]: <3.2 | IC50 (cytotoxic concentration 50, CC50) [2, 6]: 319.61 ± 60.22 µM

COc1ccc(CN2C(=N)C=CC2=O)cc1 [F]
SI (selectivity index, CC50/IC50) [1]: 0.8 | IC50 (cytotoxic concentration 50, CC50) ([2]; mouse): 2.82 ± 1.39 µM

COc1ccc(NC(=O)/C=C/C#N)cc1 [G]
IC50 ([1]; Trypanosoma cruzi, 72 h): 20.7 ± 2.66 µM | IC50 (cytotoxic concentration 50, CC50) [2, 6]: 266.62 ± 42.48 µM | larval viability [4, 7]: Alive | larval viability [4, 8]: Alive | larval viability [4, 9]: Alive | larval viability [4, 10]: Alive | larval viability [4, 11]: Alive | larval viability ([4]; IC90 of compound, 1 h): Alive | larval viability ([4]; IC90 of compound, 3 h): Alive | larval viability ([4]; IC90 of compound, 12 h): Alive | larval viability ([4]; IC90 of compound, 24 h): Alive | larval viability ([4]; IC90 of compound, 48 h): Alive | IC50 [5]: 10.6 ± 3.05 µM | SI (selectivity index, CC50/IC50) [5]: 25.2

COc1ccc(N2C(=N)C=CC2=O)cc1 [H]
SI (selectivity index, CC50/IC50) [1]: 0.9 | toxicity of Z isomer relative to E isomer (times more toxic) ([2]; G–H isomer pair, murine macrophages): 100 | IC50 (cytotoxic concentration 50, CC50) [2, 6]: 2.42 ± 1.58 µM

Triton [reference compound]
larval viability ([4]; 0.01%, 1 h): Alive | larval viability ([4]; 0.01%, 3 h): Alive | larval viability ([4]; 0.01%, 12 h): Dead | larval viability ([4]; 0.01%, 24 h): Dead | larval viability ([4]; 0.01%, 48 h): Dead | larval viability ([4]; 0.5%, 1 h): Alive | larval viability ([4]; 0.5%, 3 h): Dead | larval viability ([4]; 0.5%, 12 h): Dead | larval viability ([4]; 0.5%, 24 h): Dead | larval viability ([4]; 0.5%, 48 h): Dead | larval viability ([4]; 1%, 1 h): Dead | larval viability ([4]; 1%, 3 h): Dead | larval viability ([4]; 1%, 12 h): Dead | larval viability ([4]; 1%, 24 h): Dead | larval viability ([4]; 1%, 48 h): Dead
